Source: PubChem BioAssay (NCI)
Where “and” joins values, the source holds several entries; their conditions need not be identical. Equal entries are not always repeated.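 Grown in 96-well plates, cells were treated for 48 hours with each compound at five concentrations. Insufficient inhibition: endpoint recorded as highest concentration tested. Abbreviation: GI50, concentration required for 50% inhibition of growth. At the TGI there is no net growth.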

system: MDA-MB-468 breast; assay: DTP human tumour cell line panel, 48 h

Row | Structure (SMILES) | GI50 | TGI
1 | NC1=Nc2cc(OCCCCN3Cc4ccccc4C3)c(OCC3CC3)cc2C12CCCC2 | 1250 nM | 2750 nM
2 | CCN(CC)c1ccc(C=C2C(=O)NC(=S)NC2=O)cc1 | 2370 nM | 5560 nM
3 | CN(C)CCCn1c2c(c3ccc(N4CCNCC4)cc3c1=O)C(=O)c1ccccc1-2 | 949 nM | 2410 nM
4 | C=C1C(=O)O[C@H]2[C@H]1CC/C(COC(=O)NCc1ccc(Cn3c(=O)sn(CCCI)c3=O)cc1)=C\CC[C@@]1(C)O[C@@H]21 | 1540 nM | 3480 nM
5 | CC(=O)Nc1ccc(S(=O)(=O)N2C(=O)CCC2C(=O)Nc2ccccc2)cc1 (stereo not given) | 1760 nM | 19200 nM
6 | Cc1cc(C)c(CNC(=O)c2cc(Cl)c3c(c2C)O[C@@](C)(C2CCC(N(C)C)CC2)O3)c(=O)[nH]1 (stereo not given in full) | 24100 nM | > 100000 nM
7 | CC1(C)CC[C@]2(C(=O)O)CC[C@]3(C)C(=CC[C@@H]4[C@@]5(C)C/C(=C/c6cccnc6)[C@H](O)C(C)(C)[C@@H]5CC[C@]43C)[C@@H]2C1 | 17100 nM | 88300 nM
8 | CCn1nc(C#Cc2c(C)ccc3c(Nc4ccc(Cl)cc4)nccc23)c2c(N)ncnc21 | 2250 nM | 10500 nM
9 | COc1ccc(-c2cc(-c3ccc(Cl)cc3)c(C#N)c(=O)n2CCCCCC(=O)Nc2ccccc2N)cc1 | 3240 nM | 31500 nM
10 | CC(C)c1c(C(=O)Nc2ccccc2)c(-c2ccccc2)c(-c2ccc(F)cc2)n1CC[C@@H](O)C[C@@H](O)CC(=O)O | 9320 nM | 68900 nM
11 | Fc1cnccc1-c1nc2ccc3[nH]ncc3c2c2c1CCCC2 | 1050 nM | 7860 nM
12 | COc1ncc(-c2ccc3nc(N)n(-c4ccccc4C(F)(F)F)c(=O)c3c2)cc1S(=O)(=O)Nc1ccc(F)cc1F | 853 nM | 2920 nM
13 | N=C(N)c1ccc(-c2ccc(-c3cccs3)s2)cc1F | 46.4 nM | 256 nM
14 | OC1(c2ccccc2)c2ccccc2N(c2ccccc2)c2ccc(Cl)cc21 (stereo not given) | 86.4 nM | 317 nM
15 | O=c1c2cc(F)ccc2sc2c(NCCCNCCO)nc3ccc(F)cc3c12 | 1780 nM | 3470 nM
16 | CN1CCN(c2ccc(Nc3nc(NCCCNS(=O)(=O)c4cccc(F)c4)c4sccc4n3)cc2)CC1 | 2590 nM | 10900 nM
17 | CC/C(=C\c1ccc(N(C)C)cc1)c1ccncc1 | 2270 nM | 7320 nM
18 | N/C(=N\O)c1cn(C2OC(CO)C(O)C2O)c2ncnc(N)c12 (stereo not given) | 126 nM | 453 nM
19 | Nc1nc(N)c2nc(CNc3ccc(C(=O)NC(CCC(=O)O)C(=O)O)cc3)cnc2n1 (stereo not given) | 35.7 nM and < 10 nM | > 100000 nM
20 | Nc1c2ccccc2nc2ccccc12 | 1060 nM and 1150 nM | 2850 nM and 2880 nM
21 | CC[C@@]12CC(C(=O)OC)=C3Nc4ccccc4[C@@]34CCN(C[C@H]3O[C@H]31)[C@@H]24 | 21500 nM | 98700 nM
22 | COc1cc(-c2nn(-c3cccc(NC(=O)NCCNC(=O)c4ccccc4)c3)cc2-c2ccncc2)ccc1Cl | 3140 nM | > 100000 nM
23 | CCc1ccc2cc3c(ccc4ccccc43)c3c2c1CC3 | 481 nM | > 100000 nM
24 | FC(F)(F)c1ccc(-c2cnc(-c3nn[nH]n3)nc2NC2CCCCCC2)cc1 | > 10000 nM | > 10000 nM
25 | C=C(C)[C@@H]1CC[C@]2(C(=O)OC)CC[C@]3(C)[C@H](CC[C@@H]4[C@@]5(C)CC/C(=N\OCCC(=NCCC#N)NOCCC#N)C(C)(C)[C@@H]5CC[C@]43C)[C@@H]12 | 2020 nM | > 50000 nM
26 | N#Cc1cccc(/C(N)=N/C(N)=N/c2nc3ccccc3s2)c1 | 415 nM | –

Row | Structure (SMILES) | GI50 | TGI
27 | Nc1nc(-c2ccccn2)c(-c2ccc3ncccc3n2)s1 | > 25000 nM | > 25000 nM
28 | CCCCCCCCCCCCNC(=O)N[C@H](C(=O)N[C@H]1/C=C/OCCNC(=O)/C=C/[C@H](C(C)C)NC1=O)C(C)C | 898 nM | 6740 nM
29 | COc1cc(F)c(F)c(F)c1C(=O)c1cnc(NC2CCN(S(C)(=O)=O)CC2)nc1N | 2300 nM | 7270 nM
30 | CCCN1CCCC(c2ccc(Nc3nc(Nc4cc(F)ccc4C(N)=O)c4cc[nH]c4n3)c(OC)c2)C1 (stereo not given) | 3250 nM | 6730 nM
31 | O=c1[nH]c(-c2ccncc2)nc2sc3c(c12)CCCCCC3 | > 100000 nM | > 100000 nM
32 | COc1cnc2c(c1)C(=O)c1c-2n(CCCN2CCNCC2)c(=O)c2cc(F)ccc12 | 205 nM | 784 nM
33 | COc1cccc(-c2cc(-c3ccc(Nc4nc(Nc5ccc(Cl)cc5)nc(Nc5ccc(Cl)cc5)n4)cc3)nc(N)c2C#N)c1 | 2180 nM | 4790 nM
34 | CC1(C)N=C(N)N=C(N)N1c1cccc(CC(=O)Nc2ccccc2)c1 | 22100 nM | > 100000 nM
35 | CN1CC[C@H](N(C)C(=O)N2CC(c3cc(F)ccc3F)=C[C@@]2(CO)c2ccccc2)[C@H](F)C1 | 5.14 nM | –
36 | COc1cc2nc(NC3CCC3)nc(NC3CCN(C(C)C)CC3)c2cc1OC | 1370 nM | 2850 nM
37 | CNC(=S)N/N=C/CSC/C=N/NC(=S)NC | > 100000 nM | > 100000 nM
38 | COc1cc(C(=O)N[C@@H]2CCCN(C)C2)ccc1Nc1ncc2c(n1)N(C1CCCC1)CC(C)(C)C(=O)N2C | 17.7 nM | 3390 nM
39 | CC(C)OC(=O)OCOP(=O)(OCOC(=O)OC(C)C)C1CCCN(O)C1=O (stereo not given) | 1610 nM | > 100000 nM
40 | C=CN(C(=O)N1CCN(c2cc3c(cc2F)c(=O)c(C(=O)O)cn3C2CC2)CC1)c1nc(-c2ccc(C)cc2)cs1 | 2860 nM | 9140 nM
41 | O=C1Nc2ccc(I)cc2/C1=C/c1cc(Br)c(O)c(Br)c1 | > 18900 nM and 15900 nM | > 25000 nM and 57500 nM
42 | Nc1ncnc2c1ncn2C1SC(CO)C(O)C1O (stereo not given) | 19400 nM | 58000 nM
43 | CCOc1ccc(-c2nc3ccc(-c4nc5ccc(N6CCN(C)CC6)cc5[nH]4)cc3[nH]2)cc1OCC | 1580 nM | 4600 nM
44 | O=c1[nH]c2c(ccc3cnccc32)c2c1CCC2 | 206 nM | 549 nM
45 | CN(C)c1ccc(-c2cc(-c3cccc(NS(C)(=O)=O)c3)nc(N)c2C#N)cc1 | 268 nM | 1170 nM
46 | Cc1ccccc1C1N=C2Oc3ccccc3C=C2C(=O)N1 (stereo not given) | 524 nM | > 100000 nM
47 | CC1(C)CCC(c2ccc(Cl)cc2)=C(CN2CCN(c3ccc(C(=O)NS(=O)(=O)c4ccc(N[C@H](CCN5CCOCC5)CSc5ccccc5)c(S(=O)(=O)C(F)(F)F)c4)cc3)CC2)C1 | 770 nM | 2640 nM
48 | Cc1ccc(CNc2ccc(Cl)cc2NCc2ccc(C)c(O)c2)cc1O | 8050 nM | 16800 nM
49 | Cc1n[nH]c(C)c1-c1c(C)n[nH]c1C | 1960 nM | 4750 nM
50 | COC(=O)[C@@H](C)C[C@H](Cc1ccccc1)NC(=O)c1nc([C@@H](C[C@H](C(C)C)N(C)C(=O)[C@@H](NC(=O)[C@H]2CC(=O)CCN2C)C(C)C)OC(C)=O)sc1C(C)C | 25.8 nM | 129 nM
51 | N#CSc1c[nH]c2cccc(/C=C/C(=O)/C=C(O)/C=C/c3cccc4[nH]cc(SC#N)c34)c12 | 496 nM | 1220 nM
